Test [1] has as its target T1, MC4-R (Homo sapiens, UniProt P32245).
T1 construct: expressed in transfected cells; host or cells: HEK-293
Description: Competitive inhibition Ki (AgRP), MC4-R. The conditions noted are these: AgRP as competing ligand. It is filed as binding.

The target of test [2] is T1, MC4-R. Description: Competitive inhibition binding assay using [I125]-NDP-α-MSH, hMC4-R. The conditions noted are these: radioligand [I125]-NDP-α-MSH, HEK-293 membranes; read-out: Ki (NDP-α-MSH) MC4-R. Here is the method:
(§1) The assay tube also contained a chosen concentration of the test peptide of this invention, typically a 1 μM concentration, for determining its efficacy in inhibiting the binding of [I^125]NDP-α-MSH to the receptor.
(§2) The assay mixture was incubated for 60 minutes at 37° C., then filtered and the membranes washed three times with ice cold phosphate buffered saline. The filter was dried and counted in a gamma counter for remaining radioactivity bound to the membranes. 100% specific binding was defined as the difference in radioactivity (cpm) bound to cell membranes in the absence and presence of 1 μM NDP-α-MSH. […] Each assay was conducted in triplicate. The Ki (nM) of certain peptides of the invention were determined using similar assay protocols and testing peptides over a wider dose range.

For test [3], the target named is T2, MC3-R (Homo sapiens, UniProt P41968).
T2 construct: expressed in transfected cells; host or cells: HEK-293
Description: Competitive inhibition Ki (AgRP), MC3-R. The conditions noted are these: AgRP as competing ligand. The class given is binding. Here is the method: as §2

For test [4], the target named is T3, MC1-R (B-16 mouse melanoma cells) (Mus musculus, UniProt Q01727).
T3 construct: B-16 mouse melanoma cells (containing MC1-R); endogenous in cells; host or cells: B-16 mouse melanoma cells
Description: Competitive inhibition binding assay using [I125]-NDP-α-MSH, MC1-R. The conditions noted are these: radioligand [I125]-NDP-α-MSH, B-16 mouse melanoma membranes. Here is the method: The assay mixture was incubated for 60 minutes at 37° C., then filtered and the membranes washed three times with ice cold phosphate buffered saline. The filter was dried and counted in a gamma counter for remaining radioactivity bound to the membranes. […] Each assay was conducted in triplicate.

For another test, the target named is T4, hMC4-R (HEK-293 cells) (Homo sapiens, UniProt P32245).
T4 construct: expressed in transfected cells; host or cells: HEK-293
Description: cAMP functional assay for agonist/antagonist status, MC4-R. It is filed as cell-based. The method, then:
(§3) Functional evaluation of peptides at melanocortin receptors was performed by measuring the accumulation of intracellular cAMP in HEK-293 cells expressing hMC3-R, hMC4-R or hMC5-R, and in B-16 mouse melanoma cells expressing MC1-R. Cells suspended in Earle's Balanced Salt Solution containing 10 mM HEPES (pH 7.5), 5 mM MgCl2, 1 mM glutamine, 0.5% albumin and 0.3 mM 3-isobutyl-1-methyl-xanthine, a phosphodiesterase inhibitor, were plated in 96 well plates at a density of 0.5×10^5 cells per well. Cells were incubated with the test peptides in the presence or absence of NDP-α-MSH for 1 hour at 37° C. cAMP levels in the cell lysates were measured using an EIA kit (Amersham). Data analysis and EC50 values were determined using nonlinear regression analysis with Prism Graph-Pad software.
(§4) The agonist/antagonist status with respect to MC1-R, MC4-R and MC5-R of certain peptides of the invention was determined. Antagonistic activity was determined by measuring the inhibition of α-MSH-induced or NDP-α-MSH-induced cAMP levels following exposure to the peptides as in the preceding descriptions.
Evaluation of the molecules to elicit a functional response in HEK-293 cells expressing hMC4-R for agonistic activity was done by measuring the accumulation of intracellular cAMP following treatment. Confluent HEK-293 cells over-expressing MC4-R receptors were detached by enzyme free cell suspension buffer. Cells were suspended in Earle's Balanced Salt Solution containing 10 mM HEPES (pH 7.5), 1 mM MgCl2, 1 mM glutamine, 0.5% albumin and 0.3 mM 3-isobutyl-1-methyl-[…]. The cells were plated in a 96 well plate at a density of 0.5×10^5 cells per well and pre-incubated for 60 minutes. The cells were then challenged with the test peptides dissolved in dimethylsulfoxide (DMSO) at a concentration range of 0.05-5000 nM in a total assay volume of 200 μL for 1 hour at 37° C. The concentration of DMSO was held at 1% in the assay mixture. NDP-α-MSH was used as the reference agonist. At the end of the incubation period the cells were disrupted by the addition of 50 μL lysis buffer from the cAMP EIA kit (Amersham). Complete rupture of the cells was ensured by pipetting the cells. cAMP levels in the cell lysates were measured after appropriate dilution using the EIA kit (Amersham) method. Data analysis and EC50 values were determined by using nonlinear regression analysis with the Prism Graph-Pad software.

In the next test the target is T5, hMC5-R (Homo sapiens, UniProt P33032).
T5 construct: expressed in transfected cells; host or cells: HEK-293
Description: Competitive inhibition binding assay using [I125]-NDP-α-MSH, hMC5-R. Particulars: radioligand [I125]-NDP-α-MSH, HEK-293 membranes; read-out: Ki (NDP-α-MSH) MC5-R. Here is the method:
as §1, §2

The next test addresses T6, hMC3-R (HEK-293 cells) (Homo sapiens, UniProt P41968).
T6 construct: expressed in transfected cells; host or cells: HEK-293
Description: cAMP functional assay for agonist/antagonist status, MC3-R. The class given is cell-based. The method, then: as §3, §4

The target in test [5] is T3, MC1-R (B-16 mouse melanoma cells). Description: cAMP functional assay for agonist/antagonist status, MC1-R. The class given is cell-based. Here is the method:
Data analysis and EC50 values were determined using nonlinear regression analysis with Prism Graph-Pad software.
The agonist/antagonist status with respect to MC1-R, MC4-R and MC5-R of certain peptides of the invention was determined.

Test [6] concerns the target T2, MC3-R. Description: Competitive inhibition binding assay using [I125]-NDP-α-MSH, hMC3-R. The conditions noted are these: radioligand [I125]-NDP-α-MSH, HEK-293 membranes; read-out: Ki (NDP-α-MSH) MC3-R. Here is the method: as §1, §2
[7] abbreviates: cAMP response ratio to NDP-α-MSH.

Where a SMILES comes first, the peptide text is derived from it. Bridges are numbered along the chain shown (N, C = ends). [ ]: non-standard residue; d: D form. 1Nal = N[C@@H](Cc1cccc2ccccc12)C(=O)O

T6 sequence (P41968 whole entry): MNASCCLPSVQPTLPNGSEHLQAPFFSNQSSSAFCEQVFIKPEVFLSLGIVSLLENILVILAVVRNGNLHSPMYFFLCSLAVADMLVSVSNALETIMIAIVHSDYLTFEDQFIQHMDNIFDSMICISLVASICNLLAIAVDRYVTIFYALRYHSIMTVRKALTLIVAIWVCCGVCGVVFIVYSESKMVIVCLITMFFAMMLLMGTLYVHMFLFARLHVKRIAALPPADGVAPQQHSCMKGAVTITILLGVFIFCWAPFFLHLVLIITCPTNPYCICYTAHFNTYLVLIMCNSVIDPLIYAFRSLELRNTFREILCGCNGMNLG
T3 sequence (Q01727 whole entry): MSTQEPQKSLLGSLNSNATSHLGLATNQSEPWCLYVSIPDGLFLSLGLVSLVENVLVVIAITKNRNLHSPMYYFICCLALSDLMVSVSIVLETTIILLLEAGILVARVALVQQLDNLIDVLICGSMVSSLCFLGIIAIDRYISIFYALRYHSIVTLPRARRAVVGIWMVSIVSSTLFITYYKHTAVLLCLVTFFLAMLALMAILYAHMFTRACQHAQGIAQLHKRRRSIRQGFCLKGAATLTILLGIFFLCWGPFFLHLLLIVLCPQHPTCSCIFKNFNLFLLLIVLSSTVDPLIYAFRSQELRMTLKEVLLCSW
T4 sequence (P32245 whole entry): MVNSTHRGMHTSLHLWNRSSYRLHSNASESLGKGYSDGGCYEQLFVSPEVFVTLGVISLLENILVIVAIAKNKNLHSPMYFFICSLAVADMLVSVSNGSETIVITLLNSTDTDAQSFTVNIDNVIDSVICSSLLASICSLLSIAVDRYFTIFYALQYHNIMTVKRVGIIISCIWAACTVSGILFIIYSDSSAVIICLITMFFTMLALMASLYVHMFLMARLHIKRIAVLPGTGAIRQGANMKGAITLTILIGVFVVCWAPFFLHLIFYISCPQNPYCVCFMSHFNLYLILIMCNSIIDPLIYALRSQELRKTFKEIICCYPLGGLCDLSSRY
T2 sequence (P41968 whole entry): as the sequence (P41968 whole entry) above
T1 sequence (P32245 whole entry): as the sequence (P32245 whole entry) above
T5 sequence (P33032 whole entry): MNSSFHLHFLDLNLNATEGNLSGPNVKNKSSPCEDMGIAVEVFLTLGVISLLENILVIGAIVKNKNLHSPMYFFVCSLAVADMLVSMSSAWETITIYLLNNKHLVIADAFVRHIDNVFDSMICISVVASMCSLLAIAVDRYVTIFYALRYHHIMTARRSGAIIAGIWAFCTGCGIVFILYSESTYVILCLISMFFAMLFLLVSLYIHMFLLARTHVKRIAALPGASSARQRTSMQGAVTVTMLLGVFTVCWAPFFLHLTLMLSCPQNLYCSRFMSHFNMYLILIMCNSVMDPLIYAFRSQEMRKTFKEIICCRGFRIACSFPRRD

Consider `CCNC(=O)[C@@H]1CCCCNC(=O)C[C@H](NC(C)=O)C(=O)N[C@@H](Cc2c[nH]cn2)C(=O)N[C@H](Cc2ccccc2)C(=O)N[C@@H](CCCNC(=N)N)C(=O)N[C@@H](Cc2cccc3ccccc23)C(=O)N1` [Example 16, Ac-cyclo(-Asp-His-D-Phe-Arg-Nal 1-Lys)-NH—CH2—CH3] (Ac-DH[dF]R[1Nal]K-NHEt; lactam 1-6 (inferred)), for which the Ki was 284 nM at MC4-R [1]; 157 nM on MC4-R [2]; above 2000 nM at MC3-R [3]; 18 nM in [4]; 937 nM on hMC5-R; 462 nM on MC3-R [6]. The EC50 came out at 500 nM on hMC4-R (HEK-293 cells) (cAMP accumulation), 6210 nM on hMC3-R (HEK-293 cells) (cAMP accumulation) and 6410 nM in test [5] (cAMP accumulation). The “agonist/antagonist status as to MC4-R” value on hMC4-R (HEK-293 cells) (cAMP assay) was “agonist (response ratio compared to NDP-α-MSH of 0.7 and above were classified as full agonists)”. The “efficacy relative to NDP-α-MSH, MC4-R” value at hMC4-R (HEK-293 cells) (setting [7]) was 1.1. Further, the “agonist/antagonist status as to MC3-R” value at hMC3-R (HEK-293 cells) (cAMP assay) is “agonist (response ratio compared to NDP-α-MSH of 0.7 and above were classified as full agonists)”. Moreover, the “efficacy relative to NDP-α-MSH, MC3-R” value on hMC3-R (HEK-293 cells) (setting [7]) is 0.8. For the same compound, the “agonist/antagonist status as to MC1-R” value in [5] (cAMP assay) was “agonist (response ratio compared to NDP-α-MSH of 0.7 and above were classified as full agonists)”. Besides, the “efficacy relative to NDP-α-MSH, MC1-R” value in [5] (setting [7]) is listed as 0.9.

The Ki is the dissociation constant of the complex between target and ligand, obtained from inhibition or displacement. One may read the EC50 as the concentration that produces a half-maximal response. Higher therefore signals a less potent agent.
